Entries after “also recorded” stand apart in the source; their conditions may differ.
Assays:
THP-1 cell line = assay: Cytotoxicity assays (CytoTox-Glo, CytoTox 96); assay type: cell-based; details: THP-1 cells, overnight, CytoTox-Glo and CytoTox 96
Method: To evaluate cellular toxicity of active compounds, we employed the immortalized human monocytic THP1-Dual cell line (InvivoGen) in two orthogonal cytotoxicity assays: ATP-dependent luminescence (CytoTox-Glo) and colorimetric lactate dehydrogenase (LDH) release (CytoTox 96). For each assay, compounds were serially diluted 2-fold starting at 250 μM and added to 96-well flat-bottom tissue culture plates (Thermo Scientific Nunc, Cat# 165306). THP1-Dual cells were then seeded at 20,000 to 30,000 cells per well in 100 μl RPMI 1640 media supplemented with 10% fetal bovine serum (Gibco). Plates were gently mixed and incubated overnight at 37 °C in a humidified 5% CO2 incubator. For the CytoTox-Glo assay (Promega, Cat# G9291), 50 μl of assay reagent was added to each well. Plates were mixed briefly, sealed, and incubated at room temperature for 15 min before reading luminescence on a TECAN Infinite M1000 Pro plate reader to quantify dead-cell signal. Subsequently, 50 μl of a digitonin-containing lysis solution was added to each well, followed by a second luminescence read after 15 min to assess total cell content. Percent cytotoxicity was calculated per manufacturer instructions. For the CytoTox 96 Non-Radioactive Cytotoxicity Assay (Promega, Cat# G1780), after overnight compound treatment, LDH release into the culture medium was measured by adding the provided substrate mix. Absorbance was read at 490 or 492 nm within 1 h of adding the stop solution. Assay optimization and data normalization were conducted according to the manufacturer’s technical manual.

[1] = molecular target: T1, cysteine-less RGS14 RGS-box protein (Homo sapiens, UniProt O43566, C100S/C183S); assay: Transcreener GDP RGScreen assay with cysteine-less RGS14 RGS-box; assay type: biochemical; details: range given jointly for cysteine-less RGS14 and RGS12 proteins; read-out: estimated IC50, cysteine-less RGS14 RGS-box
T1 construct: human RGS14 RGS-box (aa 46–195 of UniProt O43566); host or cells: E. coli
T1 sequence (O43566 46-195 C100S/C183S): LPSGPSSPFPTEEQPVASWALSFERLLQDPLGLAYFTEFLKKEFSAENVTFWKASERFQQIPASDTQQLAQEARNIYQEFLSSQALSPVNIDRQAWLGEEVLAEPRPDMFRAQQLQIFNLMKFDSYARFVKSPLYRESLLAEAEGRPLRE
From the text: Given the earlier experience with screening hit CCG-4986 being a covalent modifier of RGS4 cysteine residues ([35]), we sought to exclude protein-thiol reactivity as a potential mechanism of action of the active compounds derived from the AtomNet virtual screening effort ([55]) and SAR campaign follow-ups. To address this possibility and screen out thiol-reactive hits, cysteine-lacking versions of recombinant proteins spanning the RGS-boxes of RGS14 and RGS12 were purified from E. coli cultures.
Reagents and protocols for the fluorescence anisotropy-based Transcreener GDP RGScreen assay using a rate-altered, double point-mutant, recombinant Gαi1 protein have been extensively described previously ([43], [44]); reactions were always performed so that total GTP converted over the time course was consistently less than 10% of reaction maximum input. Specific methods for its application in assessing RGS14 and RGS12 GAP activity are summarized as follows. Open-reading frames (ORFs) encoding wild-type versions of the human RGS14 RGS-box (aa 46–195 of UniProt O43566) and human RGS12 RGS-box (aa 695–843 of UniProt O14924) were each sub-cloned in-frame with an N-terminal hexahistidine (His6) expression tag in the plasmid pET30a, expressed in E. coli cultures, and then purified by nickel-nitriloacetate (Ni-NTA) and size-exclusion (Superdex 200) column chromatographies by GenScript using previously described methods ([35]). […]
Supplementary Figure S5. […] (A,B) Recombinant, cysteine residue-lacking (“-cys”) RGS14 RGS-box protein (panel A) and cysteine residue-lacking RGS12 RGS-box protein ([…]) were both observed, in a concentration-dependent fashion (indicated in ng/µL by color), to increase steady-state GDP production by 0.5 ng/µL Gai1(DM) protein in a 20 µL final reaction volume, as measured by the Transcreener® GDP-detection RGScreen™ assay and detected by the change in polarization (ΔmP) at each indicated time point (“enz” = Gai1(DM) protein a.k.a. […]

`COc1ccc(OCc2nnc3n2N=C(c2ccc(OC)c(OC)c2)CS3)cc1` [Z55660043, 6-(3,4-dimethoxyphenyl)-3-[(4-methoxy-phenoxy)methyl]-5H-[1,2,4]triazolo[3,4-b][1,3,4]thiadiazine] was tested, and the cytotoxicity (THP-1 cell line) was “without measurable cytotoxicity; also recorded: no overt cytotoxicity” and the IC50 [1] was 10 to 19 µM.
